Several values for one entry are separate records, joined by “and”; a condition that tells them apart may be missing. Identical values can stand only once. Activity calls are given as the source filed them.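 Rule for the calls: active = compounds giving half or more protection of infected cells from virus-caused growth loss, again on retest; inactive = the rest.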 Where a SMILES comes first, the peptide text is derived from it. [ ]: non-standard residue; d: D form. The star is where a group is joined. ξ: configuration not given here. Bz = O=C(c1ccccc1)*; Bn = c1ccc(C*)cc1; ξC = NC(CS)C(=O)O Where only a bound is given, the exact number is not on record here.

The assay relates to CEM cells HIV-1 protection, formazan growth assay. Nature of the assay: NCI AIDS Antiviral Assay. As to conditions: for IC50: measured here: growth of uninfected CEM cells. A digest of the protocol: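 Protection of CEM cells against HIV-1 measured as cell growth via soluble formazan read-out, with five concentrations tested on both infected and uninfected cells; failure to protect may reflect toxicity.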

In the case of `COc1ccccc1N(CN1C(=O)CCC1C(=O)O)C(C)=O` (stereo unspecified), the result was inactive. What is called EC50 is the concentration at which the effect is half-maximal. For orientation: IC50 means the point on the concentration scale where inhibition reaches its midpoint. Consider `Cc1ccc(S(=O)(=O)Nn2c(O)c(C#N)c(-c3ccc(Cl)cc3)c(C#N)c2=O)cc1`, for which the EC50 is more than 200 µM and the IC50 is more than 200 µM.

`Cc1cc(C)nc(NS(=O)(=O)c2ccc(Nc3c4ccccc4nc4ccc(C(=O)Nc5ccc(S(=O)(=O)N=C(N)N)cc5)cc34)cc2)n1`: the EC50 is more than 93.3 µM and the IC50 stood at 47.9 µM.

`CSc1ccc(C2OC(=O)c3c2ccc2ccccc32)c(C)c1` (stereo unspecified): the EC50 is more than 16.2 µM and the IC50 was more than 16.2 µM. In the case of `C[N+](C)(C)CC(=O)N/N=C/c1oc(-c2cccc([N+](=O)[O-])c2)c(-c2cccc([N+](=O)[O-])c2)c1[N+](=O)[O-]`, the EC50 was more than 9.77 µM and the IC50 was more than 9.77 µM. With `Nc1ccc(C(=O)Nn2c(-c3ccccc3)nc3ccccc3c2=O)cc1`, the EC50 was more than 200 µM and the IC50 was more than 200 µM. Regarding `Cc1cc(S(=O)(=O)NC2=NCCN2Cc2ccccc2)c(S)cc1Cl`, the EC50 is more than 200 µM and the IC50 stood at 58.9 µM.

On to `O=C1C[C@@H]2C(COC(=O)c3ccccc3)N(OCc3ccccc3)C[C@@H]2O1` (stereo partly specified), for which the EC50 was more than 97.7 µM and the IC50 was more than 97.7 µM. As to `CN1C(=O)CN=C(c2ccc[nH]2)c2cc(Cl)ccc21` (tested in a mixture with another compound), the half-maximal effective concentration (EC50) was 11.2 µM and the IC50 turned out to be 79.4 µM. For `Cc1ccc(SC2CC3CC2C2COCC32)cc1` (stereo unspecified) the same measures were more than 85.1 µM and 47.9 µM.

With `C=C(c1ccccc1)C1ON(C)CCc2cc(OC)c(OC)cc21` (stereo unspecified), the EC50 is more than 200 µM and the IC50 was more than 100 µM. `O=C(/C=C/c1ccc2c(c1)OCO2)c1cccc2ccccc12`: the EC50 was more than 6.61 µM and the half-maximal inhibitory concentration (IC50) was more than 6.61 µM. With `Cc1cc2nnc(C(N)=O)c(N)c2cc1C`, the EC50 was more than 200 µM and the IC50 was more than 200 µM. `NS(=O)(=O)c1ccc(Nc2c3ccccc3nc3c(C(=O)NCCCN(CCO)CCO)cccc23)cc1`: the EC50 is more than 200 µM and the half-maximal inhibitory concentration (IC50) came out at 9.33 µM. Regarding `CCc1cc(-c2ccc(OC)cc2)c(C#N)c(=S)n1C1OC(COC(C)=O)C(OC(C)=O)C(OC(C)=O)C1OC(C)=O` (stereo unspecified), the EC50 is more than 200 µM; the half-inhibitory concentration (IC50) was 14.5 µM and 12.3 µM. `CCOC(=O)Nc1cc2c(c(N)n1)N=C(c1ccccc1)CO2`: the EC50 was more than 16.6 µM and the IC50 came out at 0.0933 µM. For `C=CCOCn1ccc(NC(=O)c2ccccc2)nc1=O` the same measures were more than 200 µM and more than 200 µM. For `OCCCCOC(c1ccccc1)(c1ccccc1)c1ccccc1` the same measures were more than 15.8 µM and more than 15.8 µM. For `O=C(O)CN(CC(=O)O)C1CCCCC1N1CC(=O)OC(=O)C1` (stereo unspecified) the same measures were more than 200 µM and 18.2 µM. As to `CC1(OCc2ccccc2)C(=O)N2C1N(C(=O)OCc1ccccc1)CC2(C)C` (stereo unspecified), the EC50 was more than 251 µM and the IC50 stood at 53.7 µM.

On to `O=C(O)C1(C(=O)O)CCC1.[NH2-].[NH2-].[Pt+2]`, for which the EC50 was more than 339 µM and the half-maximal inhibitory concentration (IC50) amounted to 7.94 µM. Turning to `C1CSCCSCCCSCCSCCCSCCSC1`, the EC50 is more than 200 µM and the half-inhibitory concentration (IC50) was more than 200 µM.

Consider `CS(=O)(=O)N1CC(CCl)c2ccc(S)cc21` (stereo unspecified), for which the outcome was inactive. As for `CCOC(=N)N1CCCCC1`, the EC50 was more than 200 µM and the IC50 is more than 200 µM. Consider `C/C(=N\NS(=O)(=O)c1ccc(C)cc1)C(CN(C)C)C(c1ccccc1)c1c(O)c2ccccc2oc1=O` (stereo unspecified), for which the EC50 is more than 72.4 µM and the half-inhibitory concentration (IC50) is more than 72.4 µM. Regarding `CCOP(=O)(OCC)C(NC(=O)C(C(F)(F)F)C(F)(F)F)c1ccccc1` (stereo unspecified), the EC50 was more than 200 µM and the half-inhibitory concentration (IC50) was found to be 24.5 µM. Regarding `COC1[C@]2(O)C(=O)N3/C=C\C(C)(C)c4[nH]c5ccccc5c4/C=C\3C(=O)N2C23C(C)C(C)(C)N2c2ccccc2[C@]13O` (stereo partly specified), the result was inactive. Turning to `O=C(Nc1nc2ccc([N+](=O)[O-])cc2s1)C(=O)C(C1OC(=O)c2ccccc21)[N+](=O)[O-]` (stereo unspecified), the EC50 is more than 81.3 µM and the half-maximal inhibitory concentration (IC50) was 51.3 µM. As to `COC(=O)CC1COC(C)(C)O1` (stereo unspecified), the outcome was inactive. `Cn1c2ccc([N+](=O)[O-])cc2c(=O)c2c(O)cc(O)cc21`: the EC50 was more than 200 µM and the IC50 is 19.1 µM. For `Cc1c(CNc2ccc(Cl)c(Cl)c2Cl)cnc2nc(N)nc(N)c12` the same measures were more than 2 µM and 0.347 µM.

Consider `O=C1CCCCN1`, for which the result was inactive.

On to `CCOP(=O)(OCC)/C(=C\n1ccc(=O)[nH]c1=S)C(=O)OC`, for which the EC50 is more than 200 µM and the IC50 is more than 200 µM. On to `O=Nc1ccc(Cl)cc1C(=O)c1ccccc1`, for which the EC50 was more than 200 µM and the half-maximal inhibitory concentration (IC50) worked out at 32.4 µM. Consider `c1ccc2c(c1)CC1COc3ccccc3C1O2` (stereo unspecified), for which the EC50 is more than 200 µM and the half-inhibitory concentration (IC50) was determined as 70.8 µM. In the case of `Cc1ccc(C)c(NC(=O)/C(=N\NC(N)=S)C(C#N)c2ccccc2)c1` (stereo unspecified), the EC50 is more than 19.5 µM and the half-inhibitory concentration (IC50) was more than 19.5 µM. For `COc1ccc(Nc2nc3c(N)cc(C(F)(F)F)cc3nc2-c2ccccc2)cc1`, the EC50 was more than 12.6 µM and the IC50 is more than 12.6 µM.

In the case of `O=C(CCc1n[nH]c(=S)o1)Nc1cc(Cl)ccc1Cl`, the EC50 was more than 112 µM and the IC50 was more than 112 µM. In the case of `Cc1cc(S(=O)(=O)Nc2nnc3c(C(F)(F)F)cc(Cl)cn23)c(S)cc1Cl`, the EC50 was 166 µM and the concentration for half-maximal inhibition (IC50) came out at 170 µM. For `Nc1nc(=O)nc2[nH]c3c4cccc5cccc(c3nc12)c54`, the EC50 is more than 200 µM; the IC50 was 141 µM and > 200 µM.

`O=C1CCCC(=O)NNC(=O)NCCCCCCNC(=O)NN1`: the EC50 is more than 30.2 µM and the IC50 is more than 30.2 µM. With `CN1C(=O)[C@](O)(Cc2cccc(O)c2)N(C)C(=O)[C@@H]1Cc1c[nH]c2cccc([N+](=O)[O-])c12`, the result was inactive.

Take `CC(O)=NC(Cc1ccc2ccccc2c1)C(O)=NC(Cc1ccc(Cl)cc1)C(O)=NC(Cc1c[nH]c2ccccc12)C(O)=NC(CO)C(O)=NC(Cc1ccc(O)cc1)C(O)=NC(CCCN=C(N)N)C(O)=NC(CC(C)C)C(O)=NC(CCCN=C(N)N)C(=O)N1CCCC1C(O)=NC(C)C(=N)O` (stereo unspecified): the EC50 was more than 87.1 µM and the IC50 is more than 87.1 µM. For the molecule `O=C(CCCC[n+]1ccccc1)Sc1ccccc1C(=O)Nc1ccc(S(=O)(=O)Nc2ncccn2)cc1`, the EC50 was 17 µM and the IC50 turned out to be 56.2 µM.

With `C=C[C@]1(C)CC(O)C2C(=C)C(=O)OC2[C@H]1C(=C)C=O` (stereo partly specified), the EC50 was more than 200 µM and the IC50 was 3.31 µM. Consider `CCOC(=O)C1S/C(=N\C(=N)N[N+](=O)[O-])N=C1C` (stereo unspecified), for which the outcome was inactive. As to `Cc1cn(C2C=CC(O)CC2)c(=O)[nH]c1=O` (stereo unspecified), the EC50 was more than 589 µM and the half-inhibitory concentration (IC50) was more than 589 µM. `COc1cc(CC(C(=O)O)C(=O)O)c(OC)cc1CC(C(=O)O)C(=O)O`: the outcome was inactive.

Regarding `CN(C)c1ccc(C2ON=C(c3ccccc3)N2C23CC4CC(CC(C4)C2)C3)cc1` (stereo unspecified), the EC50 was more than 200 µM and the IC50 was 24 µM. Regarding `CC(=O)[O-].N.N.N.N.[Co+3].[O-][Cl+3]([O-])([O-])[O-].[OH3+]`, the result was inactive. On the same count and under the same terms, with `CC(=O)OC1(C)C(=O)OC1(C)C(C)=O` (stereo unspecified) the entry was “inactive”. Consider `Cc1ccc(Cc2n[nH]c(=O)[nH]2)cc1`, for which the EC50 is more than 200 µM and the IC50 is more than 200 µM. `CC1C2C=CC1C(c1c3ccc(=O)cc-3oc3cc(O)ccc13)C2C(=O)O` (stereo unspecified) yielded a half-maximal effective concentration (EC50) of 2.4 µM and an IC50 of 51.3 µM. For `CCc1cc2c(oc3cc(C)ccc32)c(=O)[nH]1` the same measures were more than 100 µM and more than 100 µM. For `O=C(NC/C=C/Br)Nc1cnc2ccccc2c1`, the EC50 is more than 200 µM and the IC50 stood at 151 µM. For `COc1ccc2c(c1)OC[C@@H]1c3cc(O)c4c(OC)cccc4c3O[C@H]21` the same measures were more than 100 µM and 44.7 µM.

Take `Cc1cc(Br)ccc1N=Nc1c(C)noc1-c1ccccc1`: the outcome was inactive. For the molecule `O=C1CCCc2cc3c(cc21)CC1(C3)Cc2cc3c(cc2C1)C(=O)CCC3`, the EC50 is more than 200 µM and the IC50 is 0.977 µM.

With `O=C(CNC(=O)c1ccccc1)NC(CSCc1ccccc1)C(=O)O` (stereo unspecified) (Bz-Gly-[ξC](Bn)-OH), the EC50 was more than 676 µM and the IC50 is 550 µM. For `CC(=O)Oc1ccc(Nn2c3ccccc3c3ccccc32)c(C)c1` the same measures were more than 200 µM and 11.7 µM.

As for `CCCCS(=N)(=O)CC[C@H](N)C(=O)O` (stereo partly specified), the EC50 was more than 562 µM and the concentration for half-maximal inhibition (IC50) is 214 µM. For `N#Cc1cccc(NC(=O)c2ccc(C(=O)O)c(C(=O)c3ccc(C(=O)O)c(C(=O)Nc4cccc(C#N)c4)c3)c2)c1` the same measures were more than 170 µM and more than 170 µM.

Turning to `CCCN(CCC)C(=O)c1c(Cl)c2cccnc2n2c(C)cnc12`, the EC50 is more than 200 µM and the 50% inhibitory concentration (IC50) was 70.8 µM. For `Cn1c(=O)n2c(=O)n(C)c(=O)n2c1=O` the same measures were more than 200 µM and more than 200 µM. For `Brc1c(C(Br)Br)ccc2ccccc12` the same measures were more than 200 µM and 23.4 µM. With `O=C1C=C(C23CC4CC(CC(C4)C2)C3)Nc2ccccc2N1`, the EC50 is more than 200 µM. For the molecule `N#C/C(=C/c1ccc([N+](=O)[O-])o1)c1ccccc1`, the EC50 was more than 1050 µM and the half-inhibitory concentration (IC50) was determined as 61.7 µM.

For the molecule `C[C@@H](c1ccccc1)N1CN(C(=O)OCc2ccccc2)C(C)(C)CC1=O`, the EC50 is more than 200 µM and the IC50 is 191 µM. For `CCOC(=O)c1ccc(N2N=C3C(=CC(=O)c4ccccc43)SCC2=O)cc1` the same measures were more than 47.9 µM and 19.5 µM. `C[C@]12CC(C=O)C(=O)C(O)=C1CC[C@@H]1C2CC[C@@]2(C)C1CC[C@]2(C)O` (stereo partly specified): the result was inactive. For `Cn1c(=O)c(S(C)=O)c(O)c2ccccc21` (stereo unspecified), the EC50 is more than 200 µM and the half-inhibitory concentration (IC50) was more than 200 µM. Regarding `CCOC(=O)C1(C(F)(F)F)N=C(CC)OC(N2CCOCC2)=N1` (stereo unspecified), the EC50 was more than 200 µM and the 50% inhibitory concentration (IC50) is more than 200 µM.

(Values after PubChem BioAssay AID179 (DTP/NCI, 2004).)
